Our source for the residual activity and inhibition values is ChEMBL document CHEMBL5696442, “Discovery of type II inhibitors of TGFβ-activated kinase 1 (TAK1) and mitogen-activated protein kinase kinase kinase kinase 2 (MAP4K2)” (J Med Chem, 2015).

In experiment [1] the target is Phosphatidylinositol 4-phosphate 5-kinase type-1 alpha (Homo sapiens) (UniProt Q99755). The experiment is described as follows: Inhibition of PIP5K1A (unknown origin) at 1 uM by Ambit Kinomescan binding assay relative to control; values are per cent of control.
Experiment [2] concerns the target Serine/threonine-protein kinase 24 (Homo sapiens) (UniProt Q9Y6E0). The experiment is described as follows: Inhibition of MST3 Lys2 labeling site harbouring IHRDIKAANVLLSEHGEVK in human A-375 cells at 5 uM by KiNativ Profiling analysis relative to control. In kind it is cell-based.
Experiment [3] deals with Ribosomal protein S6 kinase alpha-3 (Homo sapiens) (UniProt P51812). Nature of the experiment: Inhibition of RSK2 Domain 1 ACT labeling site harbouring LTDFGLSKESIDHEK in human Huh-7 cells at 10 uM by KiNativ Profiling analysis relative to control. In kind it is cell-based.
The target of experiment [4] is T1, Mitogen-activated protein kinase kinase kinase 5 (Homo sapiens) (UniProt Q99683).
T1 sequence (whole entry): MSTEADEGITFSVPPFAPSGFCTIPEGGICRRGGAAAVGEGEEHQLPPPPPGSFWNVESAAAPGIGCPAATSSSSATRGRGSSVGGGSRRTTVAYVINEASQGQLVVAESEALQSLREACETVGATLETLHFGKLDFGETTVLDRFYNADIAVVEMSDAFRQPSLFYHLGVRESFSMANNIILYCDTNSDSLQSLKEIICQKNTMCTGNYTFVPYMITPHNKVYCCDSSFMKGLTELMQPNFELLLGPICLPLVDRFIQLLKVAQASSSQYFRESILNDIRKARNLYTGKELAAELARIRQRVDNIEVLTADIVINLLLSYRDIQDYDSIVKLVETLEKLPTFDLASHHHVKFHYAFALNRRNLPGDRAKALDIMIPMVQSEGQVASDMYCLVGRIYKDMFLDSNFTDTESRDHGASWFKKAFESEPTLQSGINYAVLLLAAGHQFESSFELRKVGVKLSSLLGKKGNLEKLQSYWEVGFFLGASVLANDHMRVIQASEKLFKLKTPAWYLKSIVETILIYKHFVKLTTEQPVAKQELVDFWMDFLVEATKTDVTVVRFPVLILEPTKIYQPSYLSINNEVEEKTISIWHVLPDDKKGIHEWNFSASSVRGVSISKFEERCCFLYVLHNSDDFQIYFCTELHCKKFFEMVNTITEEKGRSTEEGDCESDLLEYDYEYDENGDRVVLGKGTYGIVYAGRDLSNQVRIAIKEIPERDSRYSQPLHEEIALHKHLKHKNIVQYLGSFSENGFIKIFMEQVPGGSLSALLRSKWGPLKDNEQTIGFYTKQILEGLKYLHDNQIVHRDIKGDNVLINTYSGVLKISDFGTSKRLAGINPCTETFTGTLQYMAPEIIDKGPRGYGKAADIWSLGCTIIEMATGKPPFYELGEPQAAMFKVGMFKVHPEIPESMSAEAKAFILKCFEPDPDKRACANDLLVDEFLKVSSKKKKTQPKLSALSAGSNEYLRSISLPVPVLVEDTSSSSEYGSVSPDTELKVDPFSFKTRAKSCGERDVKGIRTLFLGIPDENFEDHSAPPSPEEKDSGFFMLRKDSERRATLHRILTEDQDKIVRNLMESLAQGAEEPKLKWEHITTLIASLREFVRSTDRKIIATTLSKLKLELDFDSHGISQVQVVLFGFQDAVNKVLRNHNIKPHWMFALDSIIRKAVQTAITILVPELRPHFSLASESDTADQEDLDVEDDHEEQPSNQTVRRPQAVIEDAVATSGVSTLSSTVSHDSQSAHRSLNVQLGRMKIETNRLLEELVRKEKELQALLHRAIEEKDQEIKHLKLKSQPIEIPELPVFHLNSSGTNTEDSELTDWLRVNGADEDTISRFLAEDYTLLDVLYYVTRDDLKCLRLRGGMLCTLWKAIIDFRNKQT
The experiment is described as follows: Inhibition of MAP3K5 Lys1 labeling site harbouring IAIKEIPERDSR in human A-375 cells at 5 uM by KiNativ Profiling analysis relative to control. The class given is cell-based.

Experiment [5] deals with T2, Dual specificity mitogen-activated protein kinase kinase 6 (Homo sapiens) (UniProt P52564).
T2 sequence (whole entry): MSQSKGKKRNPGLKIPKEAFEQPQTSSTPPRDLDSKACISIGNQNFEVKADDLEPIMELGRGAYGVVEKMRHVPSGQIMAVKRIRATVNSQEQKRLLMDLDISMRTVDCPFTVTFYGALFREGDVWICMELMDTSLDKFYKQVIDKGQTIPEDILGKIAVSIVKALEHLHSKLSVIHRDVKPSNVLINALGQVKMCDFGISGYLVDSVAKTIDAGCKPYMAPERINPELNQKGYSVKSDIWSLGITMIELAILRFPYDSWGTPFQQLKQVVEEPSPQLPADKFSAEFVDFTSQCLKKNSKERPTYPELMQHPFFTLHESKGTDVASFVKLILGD
Nature of the experiment: Inhibition of MAP2K6 Lys2 labeling site in human Huh-7 cell lysate at 1 uM by KiNativ Profiling analysis relative to control. The class given is subcellular.

Experiment [6] concerns the target Phosphatidylinositol 4-kinase beta (Homo sapiens) (UniProt Q9UBF8). Nature of the experiment: Inhibition of PI4KB ATP labeling site harbouring VPHTQAVVLNSKDK in human Huh-7 cell lysate at 1 uM by KiNativ Profiling analysis relative to control. In kind it is subcellular.
Experiment [7] addresses TRAF2 and NCK-interacting protein kinase (Homo sapiens) (UniProt Q9UKE5). Nature of the experiment: Inhibition of ZC2/TNIK Lys1 labeling site in human Huh-7 cell lysate at 1 uM by KiNativ Profiling analysis relative to control. The class given is subcellular.
The target of experiment [8] is Ribosomal protein S6 kinase alpha-3 (Homo sapiens) (UniProt P51812). The experiment is described as follows: Inhibition of RSK2 domain1 ACT labeling site LTDFGLSKESIDHEK in human Huh-7 cell lysate at 1 uM by KiNativ Profiling analysis relative to control. The class given is subcellular.
In experiment [9] the target is Cyclin-dependent kinase 17 (Homo sapiens) (UniProt Q00537). The experiment is described as follows: Inhibition of PCTAIRE2 Lys2 labeling site in human Huh-7 cell lysate at 1 uM by KiNativ Profiling analysis relative to control. In kind it is subcellular.
Experiment [10] deals with Serine/threonine-protein kinase PLK1 (Homo sapiens) (UniProt P53350). Nature of the experiment: Inhibition of PLK1 Lys2 labeling site harbouring VIHRDLKLGNLFLNEDLEVK in human Huh-7 cell lysate at 1 uM by KiNativ Profiling analysis relative to control. In kind it is subcellular.
Serine/threonine-protein kinase PLK1 (Homo sapiens), sequence (P53350 whole entry): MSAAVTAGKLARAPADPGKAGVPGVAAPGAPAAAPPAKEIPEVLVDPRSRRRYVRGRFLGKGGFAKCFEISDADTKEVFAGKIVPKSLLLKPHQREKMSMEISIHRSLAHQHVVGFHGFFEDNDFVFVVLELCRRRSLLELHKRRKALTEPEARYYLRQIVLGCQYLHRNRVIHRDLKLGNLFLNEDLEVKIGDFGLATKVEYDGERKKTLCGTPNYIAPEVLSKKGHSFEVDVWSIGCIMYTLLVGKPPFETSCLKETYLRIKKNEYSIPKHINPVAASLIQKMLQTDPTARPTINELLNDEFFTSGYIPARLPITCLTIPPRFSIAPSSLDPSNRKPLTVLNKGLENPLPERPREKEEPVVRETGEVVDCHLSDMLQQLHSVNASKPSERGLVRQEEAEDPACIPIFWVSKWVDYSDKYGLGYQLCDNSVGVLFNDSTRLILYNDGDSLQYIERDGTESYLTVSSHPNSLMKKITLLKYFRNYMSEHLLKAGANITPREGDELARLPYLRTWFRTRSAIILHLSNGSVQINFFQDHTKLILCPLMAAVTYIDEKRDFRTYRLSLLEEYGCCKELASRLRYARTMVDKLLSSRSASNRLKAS

Ribosomal protein S6 kinase alpha-3 (Homo sapiens), sequence (P51812 whole entry, the tested form may be a part): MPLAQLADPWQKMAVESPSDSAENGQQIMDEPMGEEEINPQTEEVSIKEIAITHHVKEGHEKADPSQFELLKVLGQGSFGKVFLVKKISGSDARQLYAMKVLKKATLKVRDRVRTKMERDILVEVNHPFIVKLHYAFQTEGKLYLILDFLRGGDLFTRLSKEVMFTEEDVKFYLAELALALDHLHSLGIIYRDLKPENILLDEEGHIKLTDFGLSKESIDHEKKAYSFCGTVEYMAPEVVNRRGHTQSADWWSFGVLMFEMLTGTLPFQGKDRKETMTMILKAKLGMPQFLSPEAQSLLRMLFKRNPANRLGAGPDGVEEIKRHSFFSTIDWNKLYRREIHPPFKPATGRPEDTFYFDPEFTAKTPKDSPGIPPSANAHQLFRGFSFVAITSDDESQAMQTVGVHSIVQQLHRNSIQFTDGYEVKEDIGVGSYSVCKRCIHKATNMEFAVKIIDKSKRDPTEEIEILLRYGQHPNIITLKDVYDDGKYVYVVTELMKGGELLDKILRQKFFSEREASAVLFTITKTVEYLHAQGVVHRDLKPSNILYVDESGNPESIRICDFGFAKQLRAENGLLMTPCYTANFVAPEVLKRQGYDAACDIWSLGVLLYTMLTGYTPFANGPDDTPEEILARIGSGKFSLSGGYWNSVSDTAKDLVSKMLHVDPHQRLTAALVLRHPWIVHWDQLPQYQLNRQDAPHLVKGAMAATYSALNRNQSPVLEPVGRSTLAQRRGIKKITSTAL
TRAF2 and NCK-interacting protein kinase (Homo sapiens), sequence (Q9UKE5 whole entry, looked up, the tested form may be a part): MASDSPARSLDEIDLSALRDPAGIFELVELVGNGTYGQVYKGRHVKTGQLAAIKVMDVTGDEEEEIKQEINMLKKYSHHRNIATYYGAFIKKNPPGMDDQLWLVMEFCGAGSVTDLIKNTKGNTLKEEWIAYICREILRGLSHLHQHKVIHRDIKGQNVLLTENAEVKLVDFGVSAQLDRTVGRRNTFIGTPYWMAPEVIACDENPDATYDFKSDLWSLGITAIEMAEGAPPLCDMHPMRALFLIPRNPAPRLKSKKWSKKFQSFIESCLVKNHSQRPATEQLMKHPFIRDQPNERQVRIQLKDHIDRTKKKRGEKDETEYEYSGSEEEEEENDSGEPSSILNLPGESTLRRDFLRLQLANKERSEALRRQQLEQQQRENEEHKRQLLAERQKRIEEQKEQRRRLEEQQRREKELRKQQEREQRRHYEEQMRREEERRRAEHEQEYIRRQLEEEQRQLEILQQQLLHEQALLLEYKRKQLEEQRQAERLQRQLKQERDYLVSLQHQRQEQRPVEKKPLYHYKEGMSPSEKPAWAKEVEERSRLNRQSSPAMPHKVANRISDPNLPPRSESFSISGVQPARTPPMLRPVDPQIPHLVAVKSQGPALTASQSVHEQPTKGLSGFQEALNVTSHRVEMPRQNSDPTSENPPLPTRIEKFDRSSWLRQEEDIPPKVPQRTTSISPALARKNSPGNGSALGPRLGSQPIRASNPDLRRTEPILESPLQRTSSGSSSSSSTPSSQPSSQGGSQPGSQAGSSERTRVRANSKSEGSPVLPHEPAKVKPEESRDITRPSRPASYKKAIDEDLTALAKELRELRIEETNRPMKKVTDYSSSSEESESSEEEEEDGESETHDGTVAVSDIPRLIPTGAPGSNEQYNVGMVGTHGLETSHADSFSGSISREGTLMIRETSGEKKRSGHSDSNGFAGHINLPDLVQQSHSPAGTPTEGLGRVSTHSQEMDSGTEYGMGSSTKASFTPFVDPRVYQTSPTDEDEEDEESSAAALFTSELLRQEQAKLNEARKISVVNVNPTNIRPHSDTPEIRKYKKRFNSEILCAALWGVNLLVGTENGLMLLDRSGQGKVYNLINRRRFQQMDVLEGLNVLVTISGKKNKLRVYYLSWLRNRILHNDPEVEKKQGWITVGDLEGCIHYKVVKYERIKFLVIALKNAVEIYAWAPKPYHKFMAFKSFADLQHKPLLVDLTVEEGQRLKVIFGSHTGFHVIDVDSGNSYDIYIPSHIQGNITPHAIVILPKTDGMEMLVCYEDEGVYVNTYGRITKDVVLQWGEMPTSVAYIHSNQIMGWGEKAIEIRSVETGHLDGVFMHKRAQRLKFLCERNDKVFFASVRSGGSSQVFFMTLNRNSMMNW
Cyclin-dependent kinase 17 (Homo sapiens), sequence (Q00537 whole entry, looked up): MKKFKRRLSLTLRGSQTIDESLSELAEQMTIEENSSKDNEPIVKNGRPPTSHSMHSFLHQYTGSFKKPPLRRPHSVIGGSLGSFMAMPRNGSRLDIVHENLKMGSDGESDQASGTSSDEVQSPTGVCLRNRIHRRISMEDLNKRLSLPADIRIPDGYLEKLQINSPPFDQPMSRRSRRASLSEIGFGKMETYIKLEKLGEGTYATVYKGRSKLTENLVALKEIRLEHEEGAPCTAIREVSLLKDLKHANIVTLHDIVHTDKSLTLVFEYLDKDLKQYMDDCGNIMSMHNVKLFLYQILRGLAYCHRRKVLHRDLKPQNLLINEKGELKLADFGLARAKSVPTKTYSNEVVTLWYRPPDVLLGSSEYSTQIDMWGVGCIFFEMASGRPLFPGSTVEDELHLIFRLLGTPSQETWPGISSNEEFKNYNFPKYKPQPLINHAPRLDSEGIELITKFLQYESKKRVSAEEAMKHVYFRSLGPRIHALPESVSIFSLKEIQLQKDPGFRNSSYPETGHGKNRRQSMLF
Phosphatidylinositol 4-kinase beta (Homo sapiens), sequence (Q9UBF8 2-816 limits assumed): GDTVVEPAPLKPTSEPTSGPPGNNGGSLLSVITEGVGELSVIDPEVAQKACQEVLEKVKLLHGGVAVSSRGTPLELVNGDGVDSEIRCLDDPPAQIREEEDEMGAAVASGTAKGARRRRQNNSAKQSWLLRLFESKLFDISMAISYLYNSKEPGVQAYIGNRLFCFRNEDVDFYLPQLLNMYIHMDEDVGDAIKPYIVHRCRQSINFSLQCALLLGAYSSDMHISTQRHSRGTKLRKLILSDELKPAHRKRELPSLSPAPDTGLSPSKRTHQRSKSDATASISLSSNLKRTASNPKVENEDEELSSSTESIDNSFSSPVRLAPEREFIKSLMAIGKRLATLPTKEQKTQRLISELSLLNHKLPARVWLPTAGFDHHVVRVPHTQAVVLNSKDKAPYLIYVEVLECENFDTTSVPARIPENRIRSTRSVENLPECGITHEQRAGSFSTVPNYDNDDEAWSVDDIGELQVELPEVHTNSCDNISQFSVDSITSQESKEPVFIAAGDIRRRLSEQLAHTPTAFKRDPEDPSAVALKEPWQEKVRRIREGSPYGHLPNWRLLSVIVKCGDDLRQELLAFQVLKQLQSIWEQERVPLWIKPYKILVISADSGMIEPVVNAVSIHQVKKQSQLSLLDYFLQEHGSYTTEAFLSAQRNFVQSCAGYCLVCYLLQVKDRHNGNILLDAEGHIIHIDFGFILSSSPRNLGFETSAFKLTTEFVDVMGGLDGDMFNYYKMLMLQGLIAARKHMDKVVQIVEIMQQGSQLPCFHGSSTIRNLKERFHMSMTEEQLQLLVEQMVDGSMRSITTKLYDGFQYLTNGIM
Phosphatidylinositol 4-phosphate 5-kinase type-1 alpha (Homo sapiens), sequence (Q99755 whole entry): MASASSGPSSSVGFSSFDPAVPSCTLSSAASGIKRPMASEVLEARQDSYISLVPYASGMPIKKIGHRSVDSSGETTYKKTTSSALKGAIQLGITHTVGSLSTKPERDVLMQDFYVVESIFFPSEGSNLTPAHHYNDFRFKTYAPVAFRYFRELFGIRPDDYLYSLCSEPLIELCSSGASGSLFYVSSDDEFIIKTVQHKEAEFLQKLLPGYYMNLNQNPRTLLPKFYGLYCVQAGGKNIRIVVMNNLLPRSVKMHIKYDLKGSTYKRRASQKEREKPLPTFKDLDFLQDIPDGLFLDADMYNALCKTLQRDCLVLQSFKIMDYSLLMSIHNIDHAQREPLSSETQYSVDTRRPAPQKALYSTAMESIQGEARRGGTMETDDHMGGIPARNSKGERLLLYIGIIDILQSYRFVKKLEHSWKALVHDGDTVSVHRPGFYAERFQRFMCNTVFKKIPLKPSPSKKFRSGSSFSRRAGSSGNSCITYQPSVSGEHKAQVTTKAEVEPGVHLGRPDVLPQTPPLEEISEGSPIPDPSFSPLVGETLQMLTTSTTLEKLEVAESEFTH
Serine/threonine-protein kinase 24 (Homo sapiens), sequence (Q9Y6E0 whole entry, looked up, the tested form may be a part): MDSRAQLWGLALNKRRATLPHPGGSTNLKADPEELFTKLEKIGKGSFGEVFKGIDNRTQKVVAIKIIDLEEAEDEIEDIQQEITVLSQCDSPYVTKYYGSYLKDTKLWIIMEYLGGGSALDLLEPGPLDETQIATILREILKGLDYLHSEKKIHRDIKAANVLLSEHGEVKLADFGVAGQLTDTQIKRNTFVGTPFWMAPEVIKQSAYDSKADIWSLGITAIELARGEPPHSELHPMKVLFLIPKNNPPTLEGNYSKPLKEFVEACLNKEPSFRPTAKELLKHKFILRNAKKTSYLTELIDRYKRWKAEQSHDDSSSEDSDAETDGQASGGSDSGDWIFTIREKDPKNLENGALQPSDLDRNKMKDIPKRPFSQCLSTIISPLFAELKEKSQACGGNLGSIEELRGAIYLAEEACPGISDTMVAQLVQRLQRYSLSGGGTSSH

As for `CCN1CCN(Cc2ccc(NC(=O)c3ccc(C)c(/C=C/c4cnc5[nH]ccc5c4OC)c3)cc2C(F)(F)F)CC1`, in experiment [1], the residual activity (as a rule, what remains of the control signal, in per cent) was determined as 21%. Also, the inhibition (as a rule, the relative decrease from the control value, in per cent) in [2] was -0.1%.
In the case of `CCN1CCN(Cc2ccc(NC(=O)c3ccc(C)c(Oc4ccnc5[nH]ccc45)c3)cc2C(F)(F)F)CC1`, the results for the inhibition in experiment [3] and in experiment [4] were -1.5% and -3.2%, respectively.
Turning to `CNc1cc(Oc2cc(C(=O)Nc3cc(N4CCN(C)CC4)cc(C(F)(F)F)c3)ccc2C)ncn1`, the inhibition is -4% in [5]; 1.9% in [6]; 11.9% in [7]; -5% in experiment [8]; -2.1% in experiment [9]; 10.8% in [10].
